For data set [1] the following is noted: [M+H]+; instrument: TW.
The conditions of data set [2]: instrument: DT, single field, calibrated with Agilent tune mix (Agilent).
For data set [3] the following is noted: [M+Na]+; instrument: DT; stepped-field.

For the compound `C[C@]12CCC(=O)C=C1CC[C@@H]1[C@@H]2C(=O)C[C@@]2(C)[C@H]1CC[C@]2(O)C(=O)CO` [Cortisone], the “collision cross section (N2)” value in data set [1] was 184 Å²; in data set [2] ([M+H]+), 188.6 Å²; in data set [2] ([M-H2O-H]-), 180.07 Å².
`Nc1nc(N)nc(NC2CC2)n1` [Cyromazine]: in data set [1], the “collision cross section (N2)” value stood at 133.23 Å².
Same read-out and setting: the figure for `Nc1ccc(S(=O)(=O)c2ccc(N)cc2)cc1` [Dapsone] is 149.9 Å².
As to `CCS(=O)(=O)CCSP(=O)(OC)OC` [Demeton-S-methyl- sulfone], the “collision cross section (N2)” value in data set [1] is 143.66 Å².
The same measure, in the same setting: with `CC(C)c1cc(Oc2ccccc2)cc(C(C)C)c1NC(=S)NC(C)(C)C` [Diafenthiuron] the figure was 199.75 Å²; with `CC1COC(Cn2cncn2)(c2ccc(Oc3ccc(Cl)cc3)cc2Cl)O1` (stereo not drawn) [Difenoconazole], 198.48 Å²; with `Cc1ncc([N+](=O)[O-])n1C` [Dimetridazole], 116.4 Å².
As for `C=C1C[C@@]23CC[C@H]4[C@@](C)(CCC[C@@]4(C)C(=O)O[C@@H]4O[C@H](CO)[C@@H](O)[C@H](O)[C@H]4O)[C@@H]2CC[C@]1(O[C@@H]1O[C@H](CO)[C@@H](O)[C@H](O)[C@H]1O[C@@H]1O[C@@H](C)[C@H](O)[C@@H](O)[C@H]1O)C3` [Dulcoside A], in data set [1], the “collision cross section (N2)” value is recorded as 270.75 Å².
Regarding `CSC1=N[C@@](C)(c2ccccc2)C(=O)N1Nc1ccccc1` [Fenamidone], the “collision cross section (N2)” value in data set [1] is 171.15 Å².
Turning to `CC1(C(=O)Nc2ccc(O)c(Cl)c2Cl)CCCCC1` [Fenhexamid], in data set [1], the “collision cross section (N2)” value came out at 164.82 Å².
With `CC(Cc1ccc(C(C)(C)C)cc1)CN1CCCCC1` (stereo not drawn) [Fenpropidin], the “collision cross section (N2)” value in data set [1] was 166.39 Å².
On the same count and under the same terms, the figure for `CCCCOC(=O)[C@@H](C)Oc1ccc(Oc2ccc(C(F)(F)F)cn2)cc1` [Fluazafop-P-butyl] is 194.8 Å²; for `O=C(NC(=O)c1c(F)cccc1F)Nc1ccc(Oc2ccc(C(F)(F)F)cc2Cl)cc1F` [Flufenoxuron] it is 204.46 Å².
Regarding `CC1CCc2cc(F)cc3c(=O)c(C(=O)O)cn1c23` (stereo not drawn) [Flumequine], the “collision cross section (N2)” value in data set [1] is recorded as 147.6 Å².
Still for that read-out and setting: with `C[C@@H]1C[C@H]2[C@@H]3C[C@H](F)C4=CC(=O)C=C[C@]4(C)[C@@]3(F)[C@@H](O)C[C@]2(C)[C@@]1(O)C(=O)CO` [Flumethasone] the figure was 193.2 Å².
Consider `OC(Cn1cncn1)(c1ccc(F)cc1)c1ccccc1F` (stereo not drawn) [Flutriafol], for which the “collision cross section (N2)” value in data set [1] was found to be 163.97 Å².
Still for that read-out and setting: with `CNC(=O)Oc1cccc(N=CN(C)C)c1` [Formetanate] the figure was 153.76 Å²; with `CCOCCOC(=O)C(C)Oc1ccc(Oc2ncc(C(F)(F)F)cc2Cl)cc1` (stereo not drawn) [Haloxyfop-2-ethoxyethyl], 193.53 Å².
On the same count and under the same terms, with `O=C(NC(=O)c1c(F)cccc1F)Nc1cc(Cl)c(OC(F)(F)C(F)F)c(Cl)c1` [Hexaflumuron] the figure was 188.22 Å².
`Oc1ccc2nc(-c3cscn3)[nH]c2c1` [Hydroxythiabendazole]: the “collision cross section (N2)” value in data set [1] came to 137.2 Å².
On the same count and under the same terms, the figure for `COC(=O)N(C(=O)N1CO[C@@]2(C(=O)OC)Cc3cc(Cl)ccc3C2=N1)c1ccc(OC(F)(F)F)cc1` [Indoxacarb] is 207.03 Å²; for `CC(C)c1ccc(NC(=O)N(C)C)cc1` [Isoproturon] it is 150.75 Å².
The same measure, in the same setting: the figure for `CCC(C)(CC)c1cc(NC(=O)c2c(OC)cccc2OC)on1` [Isoxaben] is 184.93 Å²; for `CC(C(=O)O)c1cccc(C(=O)c2ccccc2)c1` (stereo not drawn) [Ketoprofen] it is 155.4 Å².
Turning to `CCC[C@@H]1C[C@@H](C(=O)N[C@@H]([C@H]2O[C@H](SC)[C@H](O)[C@@H](O)[C@H]2O)[C@@H](C)O)N(C)C1` [Lincomycin], the “collision cross section (N2)” value in data set [1] was 201.8 Å².
On the same count and under the same terms, with `O=C(NC(=O)c1c(F)cccc1F)Nc1cc(Cl)c(OC(F)(F)C(F)C(F)(F)F)cc1Cl` (stereo not drawn) [Lufenuron] the figure was 198.53 Å²; with `CC(C)(C)NCC(O)c1cc(Cl)c(N)c(C(F)(F)F)c1` (stereo not drawn) [Mabuterol], 168.4 Å².
On the same count and under the same terms, the figure for `C#CCOc1ccc(CCNC(=O)C(OCC#C)c2ccc(Cl)cc2)cc1OC` (stereo not drawn) [Mandipropamid] is 195.15 Å²; for `Cc1cnc(/N=C(\O)C2=C(O)c3ccccc3S(=O)(=O)N2C)s1` [Meloxicam] it is 174.9 Å²; for `CC1(C)CCC(Cc2ccc(Cl)cc2)C1(O)Cn1cncn1` (stereo not drawn) [Metconazole] it is 168.62 Å².
For the compound `CON(C)C(=O)Nc1ccc(Cl)cc1` [Monolinuron], the “collision cross section (N2)” value in data set [1] turned out to be 142.9 Å².
On to `Cc1ccsc1/C=C/C1=NCCCN1C` [Morantel], for which, in data set [1], the “collision cross section (N2)” value was 149.7 Å².
In the case of `CCn1cc(C(=O)O)c(=O)c2ccc(C)nc21` [Nalidixic acid], in data set [1], the “collision cross section (N2)” value is 141.4 Å².
For the compound `CC(C)Oc1cc(-n2nc(C(C)(C)C)oc2=O)c(Cl)cc1Cl` [Oxadiazon], the “collision cross section (N2)” value in data set [1] is 182.17 Å².
On to `CCn1cc(C(=O)O)c(=O)c2cc3c(cc21)OCO3` [Oxolinic acid], for which the “collision cross section (N2)” value in data set [1] stood at 147.8 Å².
As to `CN(C)[C@@H]1C(O)=C(C(N)=O)C(=O)[C@@]2(O)C(O)=C3C(=O)c4c(O)cccc4[C@@](C)(O)[C@H]3[C@H](O)[C@@H]12` [Oxytetracycline], the “collision cross section (N2)” value in data set [1] is 202.3 Å².
`CCC(NC(C)C)C(O)c1ccc(O)c2[nH]c(=O)ccc12` (stereo not drawn) [Procaterol]: the “collision cross section (N2)” value in data set [1] was 168 Å².
Regarding `CC(C)N(C(=O)CCl)c1ccccc1` [Propachlor], the “collision cross section (N2)” value in data set [1] is recorded as 142.07 Å².
On the same count and under the same terms, with `CCC(=O)c1ccc2c(c1)N(CCCN(C)C)c1ccccc1S2` [Propionylpromazine] the figure was 182.8 Å²; with `Ic2ccc1\N=C(\OCCC)N(C(=O)c1c2)CCC` [Proquinazid], 169.35 Å².
As to `Cc1cc(C)nc(Nc2ccccc2)n1` [Pyrimethanil], the “collision cross section (N2)” value in data set [1] amounted to 142.95 Å².
Same read-out and setting: with `CCOP(=S)(OCC)Oc1cnc2ccccc2n1` [Quinalphos] the figure was 165.1 Å²; with `CC(CCc1ccc(O)cc1)NCC(O)c1ccc(O)cc1` (stereo not drawn) [Ractopamine], 168.9 Å².
Same read-out and setting: with `C[C@H](NCCc1ccc(O)cc1)[C@H](O)c1ccc(O)cc1` [Ritodrine] the figure was 165.8 Å²; with `Cn1c([N+](=O)[O-])cnc1COC(N)=O` [Ronidazole], 131.6 Å²; with `C=C(C)C1Cc2c(ccc3c2OC2COc4cc(OC)c(OC)cc4C2C3=O)O1` (stereo not drawn) [Rotenone], 195.01 Å².
Turning to `CC(C)(C)NCC(O)c1ccc(O)c(CO)c1` (stereo not drawn) [Salbutamol], in data set [1], the “collision cross section (N2)” value is on record as 158.3 Å².
Still for that read-out and setting: with `CCOC(=O)OC1=C(c2cc(C)ccc2C)C(=O)NC12CCC(OC)CC2` (stereo not drawn) [Spirotetramat] the figure was 189.99 Å²; with `C=C1C[C@@]23CC[C@H]4[C@@](C)(CCC[C@@]4(C)C(=O)O)[C@@H]2CC[C@]1(O)C3` [Steviol], 173.38 Å².
As to `Nc1ccc(S(=O)(=O)Nc2ccc(Cl)nn2)cc1` [Sulfachloropyridazine], the “collision cross section (N2)” value in data set [1] amounted to 156.9 Å².
Consider `Nc1ccc(S(=O)(=O)Nc2ncccn2)cc1` [Sulfadiazine], for which, in data set [1], the “collision cross section (N2)” value is listed as 148.7 Å².
The same measure, in the same setting: with `Cc1cc(C)nc(NS(=O)(=O)c2ccc(N)cc2)n1` [Sulfadimidine] the figure was 159.7 Å²; with `COc1ncnc(NS(=O)(=O)c2ccc(N)cc2)c1OC` [Sulfadoxine], 166.6 Å².
The same measure, in the same setting: the figure for `Cc1nnc(NS(=O)(=O)c2ccc(N)cc2)s1` [Sulfamethizole] is 152.2 Å²; for `Cc1nn(-c2cc(NS(C)(=O)=O)c(Cl)cc2Cl)c(=O)n1C(F)F` [Sulfentrazone] it is 173.63 Å²; for `Cc1noc(NS(=O)(=O)c2ccc(N)cc2)c1C` [Sulfisoxazole] it is 157.4 Å².
Same read-out and setting: the figure for `CCc1nn(C)c(C(=O)NCc2ccc(C(C)(C)C)cc2)c1Cl` [Tebufenpyrad] is 191.25 Å²; for `CN(C)[C@@H]1C(O)=C(C(N)=O)C(=O)[C@@]2(O)C(O)=C3C(=O)c4c(O)cccc4[C@@](C)(O)[C@H]3C[C@@H]12` [Tetracycline] it is 197.3 Å².
As to `c1ccc2[nH]c(-c3cscn3)nc2c1` [Thiabendazole], the entries for the “collision cross section (N2)” value in data set [1] and in data set [3] were 136.19 Å² and 164.17 Å², respectively.
For the compound `Cc1c(Cl)cccc1Nc1ccccc1C(=O)O` [Tolfenamic acid], the “collision cross section (N2)” value in data set [1] is given as 153.7 Å².
On to `Cc1ccc(C(=O)c2ccc(CC(=O)O)n2C)cc1` [Tolmetin], for which the “collision cross section (N2)” value in data set [1] is given as 156.7 Å².
Consider `COP(=O)(OC)C(O)C(Cl)(Cl)Cl` (stereo not drawn) [Trichlorfon], for which the “collision cross section (N2)” value in data set [1] was 136.12 Å².
On the same count and under the same terms, the figure for `O=C(NC(=O)c1ccccc1Cl)Nc1ccc(OC(F)(F)F)cc1` [Triflumuron] is 169.88 Å²; for `CC1(C)CC/C(=C\c2ccc(Cl)cc2)C1(O)Cn1cncn1` (stereo not drawn) [Triticonazole] it is 179.18 Å².
For `CC[C@H]1OC(=O)C[C@@H](O)[C@H](C)[C@@H](O[C@@H]2O[C@H](C)[C@@H](O[C@H]3C[C@@](C)(O)[C@@H](O)[C@H](C)O3)[C@H](N(C)C)[C@H]2O)[C@@H](CC=O)C[C@@H](C)C(=O)/C=C/C(C)=C/[C@@H]1CO[C@@H]1O[C@H](C)[C@@H](O)[C@@H](OC)[C@H]1OC` [Tylosine], the “collision cross section (N2)” value in data set [1] is recorded as 332.4 Å².

For the origin of these results see the C3SDB collision cross section collection.
